Data taken from patent publication US12215351B2, “Methods for inducing hematopoietic stem cell specificity” (THE CHILDREN'S MEDICAL CENTER CORPORATION, priority 2017, dated 2025).

Columns and labels:
[1] = system: Runx1:GFP+ cells derived from the zebrafish embryo culture; experiment: Zebrafish transplantation of cultured Runx1:GFP+ cells into casper recipients, whole kidney marrow FACS; assay type: in vivo; conditions: cells cultured 2 days with 50 μM, analyzed approximately 3 months post-transplant
Protocol: Runx1:GFP ubi:mCherry embryos were dissociated at 24 hpf and plated with 50 μM Ro5-3335 or DMSO. After two days in culture, double-positive cells were sorted and transplanted into 48 hpf casper recipients as previously described^10. The recipients were grown to adulthood and the whole kidney marrow was dissected at approximately 3 months and analyzed in an LSRII (BD Biosciences). As negative and positive controls, the kidney marrow of two casper adults and one Runx1:GFP ubi:mCherry adult were analyzed.

[2] = system: human iPSC-derived hemogenic endothelium cells; experiment: Human EHT culture of iPSC-derived hemogenic endothelium, FACS for CD34 and CD45; assay type: cell-based; conditions: day 6 of EHT
Protocol: (§1) Human iPSCs were cultured and differentiated into embryoid bodies as previously described^28. At day 8 of embryoid body differentiation, HE cells were magnetically purified for EHT, and treated with DMSO or Ro5-3335. FACS analysis for CD34 and CD45 was performed at day 6 of EHT using an LSRFortessa™ (BD Biosciences). In the case of the RUNX1c-reporter cell line^21, RUNX1c activity was analyzed at day 4 of EHT using an LSR Fortessa (BD Biosciences).

Runx1:GFP = experiment: High-throughput image-based chemical screen in Runx1:GFP zebrafish embryo cultures; assay type: cell-based; conditions: confirmed by a dose response curve
Protocol: Stage-matched zebrafish embryos were dissociated at 24 hpf and grown in medium composed of 85% LDF medium, 5% FBS, and 10% embryo extract. LDF medium contains 50% Leibowitz's L-15 (Invitrogen), 20% DMEM (Invitrogen), and 30% DMEM/F-12 (Invitrogen), supplemented with 2% B27 (Gibco), 15 mM HEPES (Gibco), 1% L-glutamine (Gibco), 1% N2 (Gibco), 10 nM sodium selenite (Sigma), 0.018% sodium bicarbonate (Gibco), 0.04% Primocin (Invivogen), and 0.2% Penicillin-Streptomycin (Gibco). All zebrafish experiments and procedures were performed as per protocols approved by the Boston Children's Hospital IACUC.
To screen each chemical library plate in duplicate, two 384-well plates were coated with 0.1% gelatin. Runx1:GFP^10 embryos at 24 hpf were washed with E3 embryo water and dechorionated with pronase. Embryos were washed with E3 embryo water, resuspended in blastomere media, mechanically homogenized, and filtered through a 40 µm nylon mesh filter. […]
A 4× image of the nuclear and fluorescent expression from the entire well was then thresholded and percent area was computed using ImageJ/Fiji. […] From that standard curve, residuals were calculated for each treated well and divided by the standard deviation in the control wells to obtain the z-score of each chemical treatment. […]

[3] = system: Runx1:GFP positive cells in the CHT; experiment: Runx1:GFP positive cells in the CHT of live embryos (confocal imaging); assay type: in vivo, zebrafish; conditions: 5 μM
Protocol: Transgenic Runx1:GFP embryos from the same clutch were treated at the time points indicated (n>10 embryos per treatment group) with 5 μM Ro5-3335 diluted in E3. Live embryos were embedded in 0.8% low-melting point agarose containing 0.04 mg/mL Tricaine and imaged on a Nikon Eclipe Ti microscope with 20× Plan-Apo DIC N.A. 0.75. CHT cells were counted blindly in Z-stack image projections processed on Imaris software (Bitplane).

[4] = system: iPSC-derived human hemogenic endothelium cells; experiment: Intrafemoral transplantation of treated human HE cells into NOD/LtSz-scidIL2Rgnull mice; assay type: in vivo; conditions: HE cells treated with 25 μM, 6 weeks post-transplant
Protocol: Intrafemoral transplantations were performed as described previously^28. NOD/LtSz-scidIL2Rgnull mice (Jackson Laboratory) were transplanted with approximately 100,000 HE cells at day 4 that were treated with 25 μM Ro5-3335 or DMSO. Due to the limited cell number that can be obtained during EHT, the transplants were performed over the course of several weeks.

RUNX1c+24 reporter = experiment: RUNX1c-enhancer reporter cell line undergoing EHT; assay type: cell-based, human; conditions: day 4 of EHT
Protocol: as §1

O=C1CN=C(c2ccc[nH]2)c2cc(Cl)ccc2N1 [Ro5-3335, 7-Chloro-1,3-dihydro-5-(1H-pyrrol-2-yl)-2H-1,4-benzodiazepin-2-one]
GFP+ chimerism in kidney marrow of adult casper recipients [1]: enhanced | CD34+CD45+ cells [2]: significant increase | GFP signal in the embryo cultures (Runx1:GFP): increased | number of Runx1:GFP+ cells in the CHT at 54 hpf ([3]; treated 24-30 hpf, imaged at 54 hpf): significant increase | number of Runx1:GFP+ cells in the CHT at 72 hpf ([3]; treated 24-30 hpf, same embryos at 72 hpf): A significant difference at 72 hpf was not observed | Runx1:GFP positive cells in the CHT ([3]; treated 24-48 hpf, imaged at 54 hpf): increased | Runx1:GFP positive cells in the CHT ([3]; treated 24-54 hpf, imaged at 54 hpf): increased | Runx1:GFP positive cells in the CHT ([3]; treated 24-72 hpf, imaged at 72 hpf): increased | B- and T-cells (CD19, CD3) [4]: not detected | engraftment in the contralateral leg [4]: no engraftment detected | engraftment of myeloid cells (CD33) [4]: clear population expressing the myeloid marker CD33 | chimerism of human CD45+ cells in the bone marrow ([4]; one mouse): 0.017% | RUNX1c reporter activity (RUNX1c+24 reporter): dose-dependent effect
